The values that follow come from US12209087B2, “AKT1 modulators” (Alterome Therapeutics, Inc., priority 2022, dated 2025).

Usually IC50 stands for the concentration that gives 50% inhibition.

T1 sequence (P31749 whole entry E17K): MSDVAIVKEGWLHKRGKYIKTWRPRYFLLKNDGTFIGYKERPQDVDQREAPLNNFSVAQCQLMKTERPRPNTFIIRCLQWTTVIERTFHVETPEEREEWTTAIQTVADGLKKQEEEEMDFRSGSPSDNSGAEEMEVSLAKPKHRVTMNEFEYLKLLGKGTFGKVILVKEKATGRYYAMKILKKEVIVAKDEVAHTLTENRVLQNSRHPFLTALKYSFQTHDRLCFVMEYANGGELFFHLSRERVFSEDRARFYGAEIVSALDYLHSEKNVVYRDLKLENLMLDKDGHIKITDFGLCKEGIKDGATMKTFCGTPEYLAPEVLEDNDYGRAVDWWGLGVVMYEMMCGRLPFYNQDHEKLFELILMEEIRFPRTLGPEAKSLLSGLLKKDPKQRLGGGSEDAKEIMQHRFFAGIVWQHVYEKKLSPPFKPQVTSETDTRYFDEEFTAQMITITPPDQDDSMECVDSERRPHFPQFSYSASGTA

This test has as its target T1, full length AKT E17K (Homo sapiens, UniProt P31749, E17K).
T1 construct: host or cells: HEK-293 (ATCC CRL-1573)
Kind of test: NanoBRET Target Engagement (TE) Assay. The format is cell-based. The following applies: competitive displacement of tracer in cells, read-out: AKT1 E17K IC50. In short, it runs like this:
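Compound and tracer incubated 2 h before luminescence at donor 450 nm and acceptor 600 nm, with extracellular signal inhibited. EC50 by sigmoidal variable-slope regression.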
For orientation: BRET reads energy transfer from a luciferase to a nearby fluorophore.
Consider `N#Cc1nccc(NC2CCN(Cc3ccc(-n4c(-c5c(F)ccnc5N)nc5ccc(-c6ccc(F)cn6)nc54)cc3)CC2)n1` [Example 600, 4-((1-(4-(2-(2-Amino-4-fluoropyridin-3-yl)-5-(5-fluoropyridin-2-yl)-3H-imidazo[4,5-b]pyridin-3-yl)benzyl)piperidin-4-yl)amino)pyrimidine-2-carbonitrile], for which the IC50 is 15 to 60 nM.

For `N#Cc1nccc(NC2CCN(Cc3ccc(-n4c(-c5cncnc5)nc5ccc(-c6ccc(F)cn6)nc54)cc3)CC2)n1` [Example 601, 4-((1-(4-(5-(5-Fluoropyridin-2-yl)-2-(pyrimidin-5-yl)-3H-imidazo[4,5-b]pyridin-3-yl)benzyl)piperidin-4-yl)amino)pyrimidine-2-carbonitrile], the IC50 fell in the range of 600 to 10000 nM.

In the case of `N#Cc1nccc(NC2CCN(Cc3ccc(-n4c(-c5cccnc5N)nc5ccc(-c6ccc(F)cn6)cc54)cc3)CC2)n1` [Example 602, 4-((1-(4-(2-(2-Aminopyridin-3-yl)-6-(5-fluoropyridin-2-yl)-1H-benzo[d]imidazol-1-yl)benzyl)piperidin-4-yl)amino)pyrimidine-2-carbonitrile], the IC50 is below 15 nM.

In the case of `N#Cc1nccc(NC2CCN(Cc3ccc(-n4c(-c5cccnc5N)nc5ccc(-c6ncc(F)cn6)nc54)cc3)CC2)n1` [Example 603, 4-((1-(4-(2-(2-Aminopyridin-3-yl)-5-(5-fluoropyrimidin-2-yl)-3H-imidazo[4,5-b]pyridin-3-yl)benzyl)piperidin-4-yl)amino)pyrimidine-2-carbonitrile], the IC50 was below 15 nM.

For the compound `Cc1cnc(-c2ccc3nc(-c4cccnc4N)n(-c4ccc(CN5CCC(Nc6ccnc(C#N)n6)CC5)cc4)c3n2)nc1` [Example 604, 4-((1-(4-(2-(2-Aminopyridin-3-yl)-5-(5-methylpyrimidin-2-yl)-3H-imidazo[4,5-b]pyridin-3-yl)benzyl)piperidin-4-yl)amino)pyrimidine-2-carbonitrile], the concentration for half-maximal inhibition (IC50) is below 15 nM.

Consider `N#Cc1nccc(NC2CCN(Cc3ccc(-n4c(-c5cccnc5N)nc5ccc(-c6cnc(F)cn6)nc54)cc3)CC2)n1` [Example 605, 4-((1-(4-(2-(2-Aminopyridin-3-yl)-5-(5-fluoropyrazin-2-yl)-3H-imidazo[4,5-b]pyridin-3-yl)benzyl)piperidin-4-yl)amino)pyrimidine-2-carbonitrile], for which the half-inhibitory concentration (IC50) is below 15 nM.

For `N#Cc1nccc(NC2CCN(Cc3ccc(-n4c(-c5cccnc5N)nc5ccc(-c6ccc(OCF)nc6)nc54)cc3)CC2)n1` [Example 606, 4-((1-(4-(2-(2-Aminopyridin-3-yl)-5-(6-(fluoromethoxy)pyridin-3-yl)-3H-imidazo[4,5-b]pyridin-3-yl)benzyl)piperidin-4-yl)amino)pyrimidine-2-carbonitrile], the IC50 was below 15 nM.

`N#Cc1nccc(NC2CCN(Cc3ccc(-n4c(-c5cccnc5N)nc5ccc(-c6ccc(=O)n(CF)c6)nc54)cc3)CC2)n1` [Example 607, 4-((1-(4-(2-(2-Aminopyridin-3-yl)-5-(1-(fluoromethyl)-6-oxo-1,6-dihydropyridin-3-yl)-3H-imidazo[4,5-b]pyridin-3-yl)benzyl)piperidin-4-yl)amino)pyrimidine-2-carbonitrile]: the IC50 was 15 to 60 nM.

For the compound `[2H]C([2H])([2H])n1ncc(-c2ccc3nc(-c4cccnc4N)n(-c4ccc(CN5CCC(Nc6ccnc(C#N)n6)CC5)cc4)c3n2)n1` [Example 608, 4-((1-(4-(2-(2-Aminopyridin-3-yl)-5-(2-(methyl-d3)-2H-1,2,3-triazol-4-yl)-3H-imidazo[4,5-b]pyridin-3-yl)benzyl)piperidin-4-yl)amino)pyrimidine-2-carbonitrile], the IC50 is below 15 nM.

On to `CCn1ncc(-c2ccc3nc(-c4cccnc4N)n(-c4ccc(CN5CCC(Nc6ccnc(C#N)n6)CC5)cc4)c3n2)n1` [Example 609, 4-((1-(4-(2-(2-Aminopyridin-3-yl)-5-(2-ethyl-2H-1,2,3-triazol-4-yl)-3H-imidazo[4,5-b]pyridin-3-yl)benzyl)piperidin-4-yl)amino)pyrimidine-2-carbonitrile], for which the IC50 is below 15 nM.

On to `CC(C)n1ncc(-c2ccc3nc(-c4cccnc4N)n(-c4ccc(CN5CCC(Nc6ccnc(C#N)n6)CC5)cc4)c3n2)n1` [Example 610, 4-((1-(4-(2-(2-Aminopyridin-3-yl)-5-(2-isopropyl-2H-1,2,3-triazol-4-yl)-3H-imidazo[4,5-b]pyridin-3-yl)benzyl)piperidin-4-yl)amino)pyrimidine-2-carbonitrile], for which the half-inhibitory concentration (IC50) was below 15 nM.

On to `CC(C)n1cc(-c2ccc3nc(-c4cccnc4N)n(-c4ccc(CN5CCC(Nc6ccnc(C#N)n6)CC5)cc4)c3n2)nn1` [Example 611, 4-((1-(4-(2-(2-Aminopyridin-3-yl)-5-(1-isopropyl-1H-1,2,3-triazol-4-yl)-3H-imidazo[4,5-b]pyridin-3-yl)benzyl)piperidin-4-yl)amino)pyrimidine-2-carbonitrile], for which the IC50 was below 15 nM.

For the compound `[2H]C([2H])([2H])c1nn(C)nc1-c1ccc2nc(-c3cccnc3N)n(-c3ccc(CN4CCC(Nc5ccnc(C#N)n5)CC4)cc3)c2n1` [Example 612, 4-((1-(4-(2-(2-Aminopyridin-3-yl)-5-(2-methyl-5-(methyl-d3)-2H-1,2,3-triazol-4-yl)-3H-imidazo[4,5-b]pyridin-3-yl)benzyl)piperidin-4-yl)amino)pyrimidine-2-carbonitrile], the IC50 is below 15 nM.

Regarding `N#Cc1nccc(NC2CCN(Cc3ccc(-n4c(-c5cccnc5N)nc5ccc(-c6cn[nH]n6)nc54)cc3)CC2)n1` [Example 613, 4-((1-(4-(2-(2-Aminopyridin-3-yl)-5-(2H-1,2,3-triazol-4-yl)-3H-imidazo[4,5-b]pyridin-3-yl)benzyl)piperidin-4-yl)amino)pyrimidine-2-carbonitrile], the IC50 was below 15 nM.

For `Cc1nn(C)nc1-c1ccc2nc(-c3cccnc3N)n(-c3ccc(CN4CCC(Nc5ccnc(C#N)n5)CC4)cc3)c2n1` [Example 614, 4-((1-(4-(2-(2-Aminopyridin-3-yl)-5-(2,5-dimethyl-2H-1,2,3-triazol-4-yl)-3H-imidazo[4,5-b]pyridin-3-yl)benzyl)piperidin-4-yl)amino)pyrimidine-2-carbonitrile], the IC50 is below 15 nM.

`N#Cc1nccc(NC2CCN(Cc3ccc(-n4c(-c5cccnc5N)nc5ccc(-c6cnn(C7CC7)n6)nc54)cc3)CC2)n1` [Example 615, 4-((1-(4-(2-(2-Aminopyridin-3-yl)-5-(2-cyclopropyl-2H-1,2,3-triazol-4-yl)-3H-imidazo[4,5-b]pyridin-3-yl)benzyl)piperidin-4-yl)amino)pyrimidine-2-carbonitrile]: the IC50 is below 15 nM.

As for `[2H]c1nn(C)nc1-c1ccc2nc(-c3cccnc3N)n(-c3ccc(CN4CCC(Nc5ccnc(C#N)n5)CC4)cc3)c2n1` [Example 616, 4-((1-(4-(2-(2-Aminopyridin-3-yl)-5-(2-methyl-2H-1,2,3-triazol-4-yl-5-d)-3H-imidazo[4,5-b]pyridin-3-yl)benzyl)piperidin-4-yl)amino)pyrimidine-2-carbonitrile], the IC50 was below 15 nM.

For the compound `N#Cc1nccc(NC2CCN(Cc3ccc(-n4c(-c5cccnc5N)nc5ccc(-c6ccc(=O)n(C(F)F)c6)nc54)cc3)CC2)n1` [Example 617, 4-((1-(4-(2-(2-Aminopyridin-3-yl)-5-(1-(difluoromethyl)-6-oxo-1,6-dihydropyridin-3-yl)-3H-imidazo[4,5-b]pyridin-3-yl)benzyl)piperidin-4-yl)amino)pyrimidine-2-carbonitrile], the IC50 lay in the range of 15 to 60 nM.

Turning to `N#Cc1nccc(NC2CCN(Cc3ccc(-n4c(-c5cccnc5N)nc5ccc(-c6cnn(CF)n6)nc54)cc3)CC2)n1` [Example 618, 4-((1-(4-(2-(2-Aminopyridin-3-yl)-5-(2-(fluoromethyl)-2H-1,2,3-triazol-4-yl)-3H-imidazo[4,5-b]pyridin-3-yl)benzyl)piperidin-4-yl)amino)pyrimidine-2-carbonitrile], the IC50 is below 15 nM.

Regarding `N#Cc1nccc(NC2CCN(Cc3ccc(-n4c(-c5cccnc5N)nc5ccc(-c6cn(CF)nn6)nc54)cc3)CC2)n1` [Example 619, 4-((1-(4-(2-(2-Aminopyridin-3-yl)-5-(1-(fluoromethyl)-1H-1,2,3-triazol-4-yl)-3H-imidazo[4,5-b]pyridin-3-yl)benzyl)piperidin-4-yl)amino)pyrimidine-2-carbonitrile], the concentration for half-maximal inhibition (IC50) was below 15 nM.

In the case of `N#Cc1nccc(NC2CCN(Cc3ccc(-n4c(-c5cccnc5N)nc5ccc(-c6cnn(C(F)F)n6)nc54)cc3)CC2)n1` [Example 620, 4-((1-(4-(2-(2-Aminopyridin-3-yl)-5-(2-(difluoromethyl)-2H-1,2,3-triazol-4-yl)-3H-imidazo[4,5-b]pyridin-3-yl)benzyl)piperidin-4-yl)amino)pyrimidine-2-carbonitrile], the IC50 is below 15 nM.

`[2H]C([2H])([2H])n1ncc(-c2ccc3nc(-c4nccnc4N)n(-c4ccc(CN5CCC(Nc6ccnc(C#N)n6)CC5)cc4)c3n2)n1` [Example 621, 4-((1-(4-(2-(3-Aminopyrazin-2-yl)-5-(2-(methyl-d3)-2H-1,2,3-triazol-4-yl)-3H-imidazo[4,5-b]pyridin-3-yl)benzyl)piperidin-4-yl)amino)pyrimidine-2-carbonitrile]: the half-inhibitory concentration (IC50) was below 15 nM.

As for `N#Cc1nccc(NC2CCN(Cc3ccc(-n4c(-c5conc5N)nc5ccc(-c6ccc(F)cn6)nc54)cc3)CC2)n1` [Example 622, 4-((1-(4-(2-(3-Aminoisoxazol-4-yl)-5-(5-fluoropyridin-2-yl)-3H-imidazo[4,5-b]pyridin-3-yl)benzyl)piperidin-4-yl)amino)pyrimidine-2-carbonitrile], the IC50 was in the range of 60 to 600 nM.

`[2H]C([2H])(F)Oc1ccc(-c2ccc3nc(-c4cccnc4N)n(-c4ccc(CN5CCC(Nc6ccnc(C#N)n6)CC5)cc4)c3n2)cn1` [Example 623, 4-((1-(4-(2-(2-Aminopyridin-3-yl)-5-(6-(fluoromethoxy-d2)pyridin-3-yl)-3H-imidazo[4,5-b]pyridin-3-yl)benzyl)piperidin-4-yl)amino)pyrimidine-2-carbonitrile]: the IC50 was below 15 nM.
